# Laboratory results from ChEMBL document CHEMBL2074558, “rOCT2 is a basolateral potential-driven carrier, not an organic cation/proton exchanger” (Am J Physiol, 1999).
# Key:
# Format in all cases: functional, cell-based
# [1] = biological target: T1, Solute carrier family 22 member 2 (Rattus norvegicus, UniProt Q9R0W2); experiment: TP_TRANSPORTER: inhibition of TEA uptake (apical to cell)(TEA: 100 uM, NMN: 5000 uM) in OCT2-expressing MDCK cells; conditions: dog
# T1 sequence (Q9R0W2 whole entry): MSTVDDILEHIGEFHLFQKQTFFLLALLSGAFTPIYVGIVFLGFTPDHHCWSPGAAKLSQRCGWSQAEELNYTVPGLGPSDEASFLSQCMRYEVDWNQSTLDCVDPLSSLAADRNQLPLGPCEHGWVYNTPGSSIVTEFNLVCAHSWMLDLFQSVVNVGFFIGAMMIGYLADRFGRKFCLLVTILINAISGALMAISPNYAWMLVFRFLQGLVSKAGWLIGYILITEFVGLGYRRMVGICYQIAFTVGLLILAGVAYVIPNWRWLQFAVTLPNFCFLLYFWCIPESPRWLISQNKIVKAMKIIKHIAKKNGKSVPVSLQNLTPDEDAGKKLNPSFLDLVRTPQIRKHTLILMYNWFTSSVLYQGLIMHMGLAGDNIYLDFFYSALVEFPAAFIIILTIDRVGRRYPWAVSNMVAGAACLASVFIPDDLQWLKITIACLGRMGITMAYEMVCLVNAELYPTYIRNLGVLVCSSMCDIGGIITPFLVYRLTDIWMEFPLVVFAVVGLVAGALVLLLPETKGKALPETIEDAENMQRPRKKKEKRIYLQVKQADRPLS
# [2] = biological target: T1, Solute carrier family 22 member 2; experiment: TP_TRANSPORTER: TEA uptake (TEA: 200 uM, Quinacrine: 200 uM) in Xenopus laevis oocytes; conditions: oocyte
# [3] = biological target: T1, Solute carrier family 22 member 2; experiment: TP_TRANSPORTER: inhibition of TEA uptake (apical to cell)(TEA: 100 uM, Quinacrine: 200 uM) in OCT2-expressing MDCK cells; conditions: dog
# [4] = biological target: T1, Solute carrier family 22 member 2; experiment: TP_TRANSPORTER: TEA uptake (TEA: 200 uM, Quinine: 200 uM) in Xenopus laevis oocytes; conditions: oocyte
# [5] = biological target: T1, Solute carrier family 22 member 2; experiment: TP_TRANSPORTER: inhibition of TEA uptake (apical to cell)(TEA: 100 uM, Quinine: 200 uM) in OCT2-expressing MDCK cells; conditions: dog
smiles,measurement,setting,value
CNC(=O)c1cccnc1 [NICOTINYL METHYLAMIDE],Activity,[1],inhibitor [+]
CCN(CC)CCCC(C)Nc1c2ccc(Cl)cc2nc2ccc(OC)cc12 (stereo not given) [QUINACRINE],Activity,[2],inhibitor [+]
same,Activity,[3],inhibitor [+]
C=C[C@H]1C[N@@]2CC[C@H]1C[C@H]2[C@H](O)c1ccnc2ccc(OC)cc12 [QUININE],Activity,[4],inhibitor [+]
same,Activity,[5],inhibitor [+]
